The EC50 is the concentration giving half of the maximal effect. A low value points to greater potency.

The target of this assay is T1, human RORgT (Homo sapiens, UniProt P51449).
T1 construct: expressed in transfected cells
T1 sequence (P51449 267-516): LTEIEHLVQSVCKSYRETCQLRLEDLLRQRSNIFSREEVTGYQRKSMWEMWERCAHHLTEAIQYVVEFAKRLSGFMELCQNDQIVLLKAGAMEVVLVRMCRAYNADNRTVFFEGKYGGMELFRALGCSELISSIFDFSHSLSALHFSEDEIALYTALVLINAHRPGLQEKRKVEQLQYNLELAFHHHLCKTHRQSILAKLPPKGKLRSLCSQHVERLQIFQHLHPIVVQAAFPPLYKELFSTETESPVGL
Description: RORgT Gal4 Luciferase Reporter Gene Assay. It counts as cell-based. The conditions noted are these: engineered Jurkat cells overexpressing RORgT (LBD or full length) fused with Gal4 Luc reporter; 18 hours at 37° C.; luminescence. Put shortly:
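Jurkat cells expressing Gal4 Luc with either RORgT LBD (aa267-516) or full-length human RORgT, 10,000 cells/well, treated with compound (40 µM to 0.67 nM final, 3-fold dilutions) for 18 h at 37° C. Steady-Glo luminescence read; inhibition of constitutive activity as % signal-window reduction relative to a control compound.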
A general note: Reporter assays use an easily measured gene product as a stand-in for the process of interest.

For the molecule `CC(=O)N1CCC(CN2CC[C@@]3(S(=O)(=O)c4ccc(F)cc4)c4ccc(OCc5c(F)cccc5C(F)(F)F)cc4CC[C@@H]23)CC1` [Example 51, 1-(4-{[(3aR,9bR)-7-{[2-fluoro-6-(trifluoromethyl)phenyl]methoxy} -9b-(4-fluorobenzenesulfonyl)-1H,2H,3H,3aH,4H,5H,9bH-benzo[e]indol-3-yl]methyl}piperidin-1-yl)ethan-1-one], it took 32 nM to reach a half-maximal effect (EC50). As for `CC(=O)N1CCC(C)(CN2CC[C@@]3(S(=O)(=O)c4ccc(F)cc4)c4ccc(OCc5c(F)cccc5C(F)(F)F)cc4CC[C@@H]23)CC1` [Example 52, 1-(4-{[(3aR,9bR)-7-{[2-fluoro-6-(trifluoromethyl)phenyl]methoxy} -9b-(4-fluorobenzenesulfonyl)-1H,2H3H,3aH,4H,5H,9bH-benzo[e]indol-3-yl]methyl}-4-methylpiperidin-1-yl)ethan-1-one], the figure is 24 nM; as for `CC(C)(C)OC(=O)N1CC[C@@]2(S(=O)(=O)c3ccc(F)cc3)c3ccc(Cc4ccccc4)cc3CC[C@@H]12` [Example 53, ert-butyl (3aR,9bR)-7-benzyl-9b-(4-fluorobenzenesulfonyl)-1H,2H,3H,3aH,4H,5H,9bH-benzo[e]indole-3-carboxylate], 16 nM; as for `O=C(O)[C@H]1CC[C@H](C(=O)N2CC[C@@]3(S(=O)(=O)c4ccccc4)c4ccc(OCc5ccccc5)cc4CC[C@@H]23)CC1` [Example 54, (1r,4r)-4-[(3aR,9bR)-9b-(benzenesulfonyl)-7-(benzyloxy)-1H,2H,3H,3aH,4H,5H,9bH-benzo[e]indole-3-carbonyl]cyclohexane-1-carboxylic acid], 290 nM.

As for `CN1CCC(C(=O)N2CC[C@@]3(S(=O)(=O)c4ccccc4)c4ccc(OCc5c(Cl)cccc5Cl)cc4CC[C@@H]23)CC1=O` (stereo partly drawn) [Example 55, 4-[(3aR,9bR)-9b-(benzenesulfonyl)-7-[(2,6-dichlorophenyl)methoxy]-1H,2H,3H,3aH,4H,5H,9bH-benzo[e]indole-3-carbonyl]-1-methylpiperidin-2-one], a half-maximal response (EC50) required 83 nM. In the case of `O=C(CC1CCS(=O)(=O)CC1)N1CC[C@@]2(S(=O)(=O)c3ccccc3)c3ccc(OCc4c(Cl)cccc4Cl)cc3CC[C@@H]12` [Example 56, 4-{2-[(3aR,9bR)-9b-(benzenesulfonyl)-7-[(2,6-dichlorophenyl)methoxy]-1H,2H,3H,3aH,4H,5H,9bH-benzo[e]indol-3-yl]-2-oxoethyl}-1λ^6-thiane-1,1-dione] it was 66 nM. As for `CC(=O)N1CCC(C(=O)N2CC[C@@]3(S(=O)(=O)c4ccccc4)c4ccc(OCc5c(Cl)cccc5Cl)cc4CC[C@@H]23)CC1` [Example 57, 1-{4-[(3aR,9bR)-9b-(benzenesulfonyl)-7-[(2,6-dichlorophenyl)methoxy]-1H,2H,3H,3aH,4H,5H,9bH-benzo[e]indole-3-carbonyl]piperidin-1-yl}ethan-1-one], the figure is 13 nM; as for `CS(=O)(=O)NCC(=O)N1CC[C@@]2(S(=O)(=O)c3ccccc3)c3ccc(OCc4c(Cl)cccc4Cl)cc3CC[C@@H]12` [Example 58, N-{2-[(3aR,9bR)-9b-(benzenesulfonyl)-7-[(2,6-dichlorophenyl)methoxy]-1H,2H,3H,3aH,4H,5H,9bH-benzo[e]indol-3-yl]-2-oxoethyl} methanesulfonamide], 587 nM; as for `O=C(C1CCS(=O)(=O)C1)N1CC[C@@]2(S(=O)(=O)c3ccccc3)c3ccc(OCc4c(Cl)cccc4Cl)cc3CC[C@@H]12` (stereo partly drawn) [Example 59, 3-[(3aR,9bR)-9b-(benzenesulfonyl)-7-[(2,6-dichlorophenyl)methoxy]-1H,2H,3H,3aH,4H5H,9bH-benzo[e]indole-3-carbonyl]-1λ^6-thiolane-1,1-dione], 16 nM. As for `CS(=O)(=O)N1CCC(C(=O)N2CC[C@@]3(S(=O)(=O)c4ccccc4)c4ccc(OCc5c(Cl)cccc5Cl)cc4CC[C@@H]23)CC1` [Example 60, 4-[(3aR,9bR)-9b-(benzenesulfonyl)-7-[(2,6-dichlorophenyl)methoxy]-1H,2H,3H,3aH,4H,5H,9bH-benzo[e]indole-3-carbonyl]-1-methanesulfonylpiperidine], the figure is 10 nM; as for `CN1CCC(C(=O)N2CC[C@@]3(S(=O)(=O)c4ccccc4)c4ccc(OCc5c(Cl)cccc5Cl)cc4CC[C@@H]23)CC1` [Example 61, 4-[(3aR,9bR)-9b-(benzenesulfonyl)-7-[(2,6-dichlorophenyl)methoxy]-1H,2H,3H,3aH,4H,5H,9bH-benzo[e]indole-3-carbonyl]-I-methylpiperidine], 76 nM; as for `NC(=O)N1CCC(C(=O)N2CC[C@@]3(S(=O)(=O)c4ccccc4)c4ccc(OCc5c(Cl)cccc5Cl)cc4CC[C@@H]23)CC1` [Example 62, 4-[(3aR,9bR)-9b-(benzenesulfonyl)-7-[(2,6-dichlorophenyl)methoxy]-1H,2H,3H,3aH,4H,5H,9bH-benzo[e]indole-3-carbonyl]piperidine-1-carboxamide], 15 nM. `O=C(C1CCS(=O)(=O)N1)N1CC[C@@]2(S(=O)(=O)c3ccccc3)c3ccc(OCc4c(Cl)cccc4Cl)cc3CC[C@@H]12` (stereo partly drawn) [Example 63, 3-[(3aR,9bR)-9b-(benzenesulfonyl)-7-[(2,6-dichlorophenyl)methoxy]-1H,2H,3H,3aH,4H,5H,9bH-benzo[e]indole-3-carbonyl]-1λ^6,2-thiazolidine-1,1-dione] came in with an EC50 of 62 nM. Molecule `O=C(CN1CCCCS1(=O)=O)N1CC[C@@]2(S(=O)(=O)c3ccccc3)c3ccc(OCc4c(Cl)cccc4Cl)cc3CC[C@@H]12` [Example 64, 2-{2-[(3aR,9bR)-9b-(benzenesulfonyl)-7-[(2,6-dichlorophenyl)methoxy]-1H,2H,3H,3aH,4H,5H,9bH-benzo[e]indol-3-yl]-2-oxoethyl}-1λ^6,2-thiazinane-1,1-dione] displayed an EC50 of 921 nM. In the case of `O=C1NC(C(=O)N2CC[C@@]3(S(=O)(=O)c4ccccc4)c4ccc(OCc5c(Cl)cccc5Cl)cc4CC[C@@H]23)CO1` (stereo partly drawn) [Example 65, 4-[(3aR,9bR)-9b-(benzenesulfonyl)-7-[(2,6-dichlorophenyl)methoxy]-1H,2H,3H,3aH,4H,5H,9bH-benzo[e]indole-3-carbonyl]-1,3-oxazolidin-2-one] it was 256 nM; in that of `O=C(O)C1CCC(C(=O)N2CC[C@@]3(S(=O)(=O)c4ccccc4)c4ccc(OCc5c(Cl)cccc5Cl)cc4CC[C@@H]23)CC1` (stereo partly drawn) [Example 66, 4-[(3aR,9bR)-9b-(benzenesulfonyl)-7-[(2,6-dichlorophenyl)methoxy]-1H,2H,3H,3aH,4H,5H,9bH-benzo[e]indole-3-carbonyl]cyclohexane-1-carboxylic acid], 272 nM. In the case of `CC(=O)NC1CC2(C1)CC(C(=O)N1CC[C@@]3(S(=O)(=O)c4ccccc4)c4ccc(OCc5c(Cl)cccc5Cl)cc4CC[C@@H]13)C2` (stereo partly drawn) [Example 67, N-{6-[(3aR,9bR)-9b-(benzenesulfonyl)-7-[(2,6-dichlorophenyl)methoxy]-1H,2H,3H,3aH,4H,5H,9bH-benzo[e]indole-3-carbonyl]spiro[3.3]heptan-2-yl}acetamide] it was 416 nM; in that of `CC(=O)N1CC2(CC(C(=O)N3CC[C@@]4(S(=O)(=O)c5ccccc5)c5ccc(OCc6c(Cl)cccc6Cl)cc5CC[C@@H]34)C2)C1` [Example 68, 1-{6-[(3aR,9bR)-9b-(benzenesulfonyl)-7-[(2,6-dichlorophenyl)methoxy]-1H,2H,3H,3aH,4H,5H,9bH-benzo[e]indole-3-carbonyl]-2-azaspiro[3.3]heptan-2-yl}ethan-1-one], 409 nM.

The record behind these values is US20230295087A1, “AGONISTS OF ROR GAMMAt” (BRISTOL-MYERS SQUIBB COMPANY, priority 2019, published 2023).
